The values below come from PubChem BioAssay (NCI).

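Tested at 5 concentrations; 48 h exposure; 96-well plates; endpoints linearly interpolated, else capped at highest concentration. At the GI50, growth is halved. TGI marks complete inhibition of growth.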

Some test systems named below: A498 renal; EKVX NSCLC; HOP-62 NSCLC; LOX IMVI melanoma; MOLT-4 leukemia; NCI-H522 lung; OVCAR-8 ovarian; SF-539 CNS; T-47D breast; TK-10 renal.
What all share (experiment): DTP human tumour cell line panel, 48 h

Usually GI50 stands for the concentration giving 50% growth inhibition. The TGI is the concentration giving total growth inhibition.

On to `CCOC(=O)c1sc2nc(=S)[nH]c(NC(N)=S)c2c1C`, for which the GI50 with A498 renal was 27.8 µM; in the test with EKVX NSCLC, 2.49 µM; in the test on HOP-62 NSCLC, 21 µM; in the test with LOX IMVI melanoma, 15.4 µM; in the test on MOLT-4 leukemia it was 30.1 µM; with NCI-H522 lung it was 20.7 µM. Moreover, the GI50 was 25.4 µM in the test on OVCAR-8 ovarian, 11.9 µM in the test with SF-539 CNS, 11.3 µM in the test on T-47D breast and 95.5 µM in the test with TK-10 renal. Moreover, the TGI with A498 renal is 62 µM; in the test with EKVX NSCLC, 30.6 µM; in the test on HOP-62 NSCLC, 49.7 µM; in the test with LOX IMVI melanoma, 31 µM; in the test with MOLT-4 leukemia, over 100 µM; in the test with NCI-H522 lung, 55 µM. Also, the TGI was 63.3 µM in the test on OVCAR-8 ovarian, 25.4 µM in the test with SF-539 CNS, 37 µM in the test with T-47D breast and over 100 µM in the test on TK-10 renal.

With `COc1cc(OC)c(OC)cc1/C=C/c1ccccn1`, the TGI in the test on A498 renal, in the test on EKVX NSCLC, in the test with HOP-62 NSCLC, with LOX IMVI melanoma, in the test on MOLT-4 leukemia and with NCI-H522 lung was over 10 µM each time. In addition, the concentration for total growth inhibition (TGI) in the test with OVCAR-8 ovarian, with SF-539 CNS, with T-47D breast and in the test with TK-10 renal was over 10 µM each time.

As to `C=C1C(=O)O[C@@H]2C[C@@]3(C)CCC[C@H](C)C3=C[C@H]12` (tested in a mixture with another compound), the concentration for total growth inhibition (TGI) with A498 renal was 3.58 µM; in the test with EKVX NSCLC it was 15 µM; with HOP-62 NSCLC it was 7.74 µM; in the test on LOX IMVI melanoma, 11.7 µM; with MOLT-4 leukemia, 3.73 µM; with NCI-H522 lung, 2.94 µM. Moreover, the TGI with OVCAR-8 ovarian came to 3.13 µM; in the test with SF-539 CNS, 4.85 µM; with T-47D breast it was 3.18 µM; in the test with TK-10 renal, 6.92 µM.

With `CCOc1cc(/C=C/C(=O)CC(=O)/C=C/c2ccc(OC(=O)CNc3nc4ccc(OC)cc4s3)c(OCC)c2)ccc1OC(=O)CNc1nc2ccc(OC)cc2s1`, the GI50 was 13.4 µM with A498 renal; 3.48 µM in the test on EKVX NSCLC; 23 µM in the test on HOP-62 NSCLC; 3.28 µM in the test with LOX IMVI melanoma; 3.14 µM with MOLT-4 leukemia; 12.6 µM in the test on NCI-H522 lung. The GI50 in the test on OVCAR-8 ovarian is 2.5 µM; in the test with SF-539 CNS, 2.12 µM; in the test on T-47D breast, 10.6 µM; in the test on TK-10 renal, 11.4 µM. Further, the concentration for total growth inhibition (TGI) in the test with A498 renal was 26.2 µM; in the test with EKVX NSCLC it was 11.7 µM; in the test on HOP-62 NSCLC, over 100 µM; in the test on LOX IMVI melanoma it was 12.1 µM; in the test on MOLT-4 leukemia, 11.1 µM; with NCI-H522 lung it was 34.4 µM. Besides, the TGI is 6.32 µM with OVCAR-8 ovarian, 5.14 µM in the test with SF-539 CNS, 43.1 µM in the test with T-47D breast and 27.5 µM in the test on TK-10 renal.

As to `O=C(c1ccccc1)c1nc2ccc(Cl)cc2cc1C(Br)Br`, the total growth inhibition concentration (TGI) in the test with A498 renal turned out to be 9.45 µM; in the test on EKVX NSCLC it was 1.69 µM; in the test with HOP-62 NSCLC it was 1.94 µM; with LOX IMVI melanoma, 3.7 µM; with MOLT-4 leukemia it was 11.8 µM; with NCI-H522 lung it was 3.68 µM. Moreover, the TGI in the test on OVCAR-8 ovarian was 1.32 µM; in the test with SF-539 CNS, 0.537 µM; in the test on T-47D breast, 1.12 µM; in the test on TK-10 renal it was 1.83 µM.

As to `CCn1c(-c2nonc2N)nc2cnc(Oc3cccc(NC(=O)c4ccc(OCCN5CCOCC5)cc4)c3)cc21`, the GI50 in the test with A498 renal is 1.05 µM; with EKVX NSCLC it was 0.752 µM; with HOP-62 NSCLC, 1.5 µM; with LOX IMVI melanoma it was 3.1 µM; in the test on MOLT-4 leukemia, 4.29 µM; in the test with NCI-H522 lung, 1.41 µM. The GI50 was 6.25 µM in the test with OVCAR-8 ovarian, 0.929 µM in the test on SF-539 CNS, 1.94 µM with T-47D breast and 0.564 µM with TK-10 renal. The TGI is over 23.7 µM with A498 renal; over 25 µM in the test with EKVX NSCLC; over 25 µM in the test with HOP-62 NSCLC; over 25 µM in the test on LOX IMVI melanoma; 24.4 µM in the test on MOLT-4 leukemia; over 25 µM in the test with NCI-H522 lung. Moreover, the TGI with OVCAR-8 ovarian was over 25 µM; in the test on SF-539 CNS, over 25 µM; in the test with T-47D breast it was over 25 µM; with TK-10 renal, 13.7 µM.
